The compounds below were run against T1, human capsaicin receptor (Homo sapiens, UniProt Q8NER1) (assay: Calcium mobilization assay, antagonist activity (Example 6)). Details: Table I; 50% decrease in fluorescence response of cells expressing human capsaicin receptor exposed to capsaicin.
T1 construct: expressed in transfected cells
Type: cell-based
Description: A cDNA encoding full length human capsaicin receptor (SEQ ID NO:1, 2 or 3 of U.S. Pat. No. 6,482,611) is subcloned in the plasmid pBK-CMV (Stratagene, La Jolla, Calif.) for recombinant expression in mammalian cells.
Human embryonic kidney (HEK293) cells are transfected with the pBK-CMV expression construct encoding the full length human capsaicin receptor using standard methods. The transfected cells are selected for two weeks in media containing G418 (400 μg/ml) to obtain a pool of stably transfected cells. Independent clones are isolated from this pool by limiting dilution to obtain clonal stable cell lines for use in subsequent experiments.
Cells transfected with expression plasmids (as described in Example 4) and thereby expressing human capsaicin receptor are seeded and grown to 70-90% confluency in FALCON black-walled, clear-bottomed 96-well plates (#3904, BECTON-DICKINSON, Franklin Lakes, N.J.). The culture medium is emptied from the 96 well plates and […] calcium sensitive dye (Molecular Probes, Eugene, Oreg.) is added to each well (dye solution: 1 mg […], 440 μL DMSO and 440 μl 20% pluronic acid in DMSO, diluted 1:250 in Krebs-Ringer HEPES (KRH) buffer (25 mM HEPES, 5 mM KCl, 0.96 mM NaH2PO4, 1 mM MgSO4, 2 mM CaCl2, 5 mM glucose, 1 mM probenecid, pH 7.4), 50 μl diluted solution per well). Plates are covered with aluminum foil and incubated at 37° C. for 1-2 hours in an environment containing 5% CO2. After the incubation, the dye is emptied from the plates, and the cells are washed once with KRH buffer, and resuspended in KRH buffer.
To measure the ability of a test compound to agonize or antagonize a calcium mobilization response in cells expressing capsaicin receptors to capsaicin or other vanilloid agonist, the EC50 of the agonist capsaicin is first determined. An additional 20 μl of KRH buffer and 1 μl DMSO is added to each well of cells, prepared as described above. 100 μl capsaicin in KRH buffer is automatically transferred by the FLIPR instrument to each well. Capsaicin-induced calcium mobilization is monitored using either FLUOROSKAN ASCENT (Labsystems; Franklin, Mass.) or FLIPR (fluorometric imaging plate reader system; Molecular Devices, Sunnyvale, Calif.) instruments. Data obtained between 30 and 60 seconds after agonist application are used to generate an 8-point concentration response curve, with final capsaicin concentrations of 1 nM to 3 μM. KALEIDAGRAPH software (Synergy Software, Reading, Pa.) is used to fit the data to the equation: y=a*(1/(1+(b/x)^c)) to determine the 50% excitatory concentration (EC50) for the response. In this equation, y is the maximum fluorescence signal, x is the concentration of the agonist or antagonist (in this case, capsaicin), a is the Emax, b corresponds to the EC50 value and c is the Hill coefficient. Determination of Agonist Activity
Test compounds are dissolved in DMSO, diluted in 20 μl KRH buffer so that the final concentration of test compounds in the assay well is between 1 μM and 5 μM, and added to cells prepared as described above. The 96 well plates containing prepared cells and test compounds are incubated in the dark, at room temperature for 0.5 to 6 hours. It is important that the incubation not continue beyond 6 hours. Just prior to determining the fluorescence response, 100 μl capsaicin in KRH buffer at twice the EC50 concentration determined as described above is automatically added by the FLIPR instrument to each well of the 96 well plate for a final sample volume of 200 μl and a final capsaicin concentration equal to the EC50. The final concentration of test compounds in the assay wells is between 1 μM and 5 μM. […] The concentration of antagonist required to provide a 50% decrease, relative to the response observed in the presence of capsaicin and without antagonist, is the IC50 for the antagonist, and is preferably below 1 micromolar, 100 nanomolar, 10 nanomolar or 1 nanomolar.

T1 sequence (Q8NER1 whole entry): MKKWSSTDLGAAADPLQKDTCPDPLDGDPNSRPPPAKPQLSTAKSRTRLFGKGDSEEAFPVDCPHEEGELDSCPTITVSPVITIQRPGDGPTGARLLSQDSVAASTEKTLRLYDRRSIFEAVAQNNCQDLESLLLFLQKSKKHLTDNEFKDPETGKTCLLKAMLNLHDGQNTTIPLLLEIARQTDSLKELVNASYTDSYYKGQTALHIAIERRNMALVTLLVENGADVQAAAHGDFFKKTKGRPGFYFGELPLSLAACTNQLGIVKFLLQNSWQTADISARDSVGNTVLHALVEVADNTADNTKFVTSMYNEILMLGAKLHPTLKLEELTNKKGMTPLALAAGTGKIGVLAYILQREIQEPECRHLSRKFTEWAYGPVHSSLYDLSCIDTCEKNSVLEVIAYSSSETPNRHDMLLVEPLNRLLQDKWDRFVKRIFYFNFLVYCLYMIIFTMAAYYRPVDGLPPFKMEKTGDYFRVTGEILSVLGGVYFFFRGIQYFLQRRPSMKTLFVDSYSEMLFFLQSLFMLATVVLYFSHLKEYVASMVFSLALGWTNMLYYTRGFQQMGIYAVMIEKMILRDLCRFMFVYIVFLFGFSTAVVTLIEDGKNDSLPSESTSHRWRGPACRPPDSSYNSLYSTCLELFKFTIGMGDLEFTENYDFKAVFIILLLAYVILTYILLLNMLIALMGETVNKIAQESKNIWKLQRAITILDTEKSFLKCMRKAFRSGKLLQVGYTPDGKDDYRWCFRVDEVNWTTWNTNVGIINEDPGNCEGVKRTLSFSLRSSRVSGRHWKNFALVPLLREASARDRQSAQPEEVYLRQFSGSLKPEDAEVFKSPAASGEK

IC50, ≤ 1 µM:
FC(F)(F)c1ccccc1-c1ccc2c(NCCc3ccccc3)ncnc2c1 [Compound 1, N-(2-phenylethyl)-7-{2-(trifluoromethyl)phenyl]quinazolin-4-amine]
Fc1ccccc1CCNc1ncnc2cc(-c3ncccc3C(F)(F)F)ccc12 [Compound 6, N-[2-(2-fluorophenyl)ethyl]-7-[3-(trifluoromethyl)pyridin-2-yl]quinazolin-4-amine]
Fc1cccc(CCNc2ncnc3cc(-c4ncccc4C(F)(F)F)ccc23)c1 [Compound 7, N-[2-(3-fluorophenyl)ethyl]-7-[3-(trifluoromethyl)pyridin-2-yl]quinazolin-4-amine]
Fc1ccc(CCNc2ncnc3cc(-c4ncccc4C(F)(F)F)ccc23)cc1 [Compound 8, N-[2-(4-fluorophenyl)ethyl]-7-[3-(trifluoromethyl)pyridin-2-yl]quinazolin-4-amine]
COc1ccccc1CCNc1ncnc2cc(-c3ncccc3C(F)(F)F)ccc12 [Compound 9, N-[2-(2-methoxyphenyl)ethYl]-7-{3-(trifluoromethyl)pyridin-2-yl]quinazolin-4-amine]
COc1cccc(CCNc2ncnc3cc(-c4ncccc4C(F)(F)F)ccc23)c1 [Compound 10, N-[2-(3-methoxyphenyl)ethyl]7-[3-(trifluoromethyl)pyridin-2-yl]quinazolin-4-amine]
COc1ccc(CCNc2ncnc3cc(-c4ncccc4C(F)(F)F)ccc23)cc1 [Compound 11, N-[2-(4-methoxyphenyl)ethyl]-7-[3-(trifluoromethyl)pyridin-2-yl]quinazolin-4-amine]
FC(F)(F)c1cccnc1-c1ccc2c(NCCc3ccccc3Cl)ncnc2c1 [Compound 12, N-[2-(2-chlorophenyl)ethyl]-7-[3-(trifluoromethyl)pyridin-2-yl]quinazolin-4-amine]
FC(F)(F)c1cccnc1-c1ccc2c(NCCc3cccc(Cl)c3)ncnc2c1 [Compound 13, N-[2-(3-chlorophenyl)ethyl]-7-{3-(trifluoromethyl)pyridin-2-yl]quinazolin-4-amine]
FC(F)(F)c1cccnc1-c1ccc2c(NCCc3ccc(Cl)cc3)ncnc2c1 [Compound 14, N-[2-(4-chlorophenyl)ethyl]-7-[3-(trifluoromethyl)pyridin-2-yl]quinazolin-4-amine]
FC(F)(F)c1ccccc1CCNc1ncnc2cc(-c3ncccc3C(F)(F)F)ccc12 [Compound 15, N-{2-[2-(trifluoromethyl)phenyl]ethyl}-7-[3-(trifluoromethyl)pyridin-2-yl]quinazolin-4-amine]
FC(F)(F)c1cccc(CCNc2ncnc3cc(-c4ncccc4C(F)(F)F)ccc23)c1 [Compound 16, N-{2-[3-(trifluoromethyl)phenyl]ethyl}-7-[3-(trifluoromethyl)pyridin-2-yl]quinazolin-4-amine]
FC(F)(F)c1ccc(CCNc2ncnc3cc(-c4ncccc4C(F)(F)F)ccc23)cc1 [Compound 17, N-{2-[4-(trifluoromethyl)phenyl]ethyl}-7-[3-(trifluoromethyl)pyridin-2-yl]quinazolin-4-amine]
CC(CNc1ncnc2cc(-c3ncccc3C(F)(F)F)ccc12)c1ccccc1 (stereo not shown) [Compound 18, N-(2-phenylpropyl)-7-[3-(trifluoromethyl)pyridin-2-yl]quinazolin-4-amine]
FC(F)(F)c1cccnc1-c1ccc2c(NCCc3c(Cl)cccc3Cl)ncnc2c1 [Compound 19, N-[2-(2,6-dichlorophenyl)ethyl]-7-[3-(trifluoromethyl)pyridin-2-yl]quinazolin-4-amine]
FC(F)(F)c1cccnc1-c1ccc2c(NCCc3ccc(Cl)c(Cl)c3)ncnc2c1 [Compound 20, N-[2-(3,4-dichlorophenyl)ethyl]-7-[3-(trifluoromethyl)pyridin-2-yl]quinazolin-4-anmne]
CC(Cc1ccc(Cl)cc1)Nc1ncnc2cc(-c3ncccc3C(F)(F)F)ccc12 (stereo not shown) [Compound 21, N-[2-(4-chlorophenyl)-1-methylethyl]-7-[3-(trifluoromethyl)pyridin-2-yl]quinazolin-4-amine]
FC(F)(F)c1cccnc1-c1ccc2c(NCCc3ccccc3)ncnc2c1 [Compound 22, N-(2-phenylethyl)-7-[3-(trifluoromethyl)pyridin-2-yl]quinazolin-4-amine]
C[C@@H](CNc1ncnc2cc(-c3ncccc3C(F)(F)F)ccc12)c1ccccc1 [Compound 23, N-[(2R)~2-phenylpropyll]-7-[3-(trifluoromethyl)pyridin-2-yl]quinazolin-4-amine]
C[C@@H]1CN(Cc2nc(NCCc3ccccc3Cl)c3ccc(-c4ncccc4C(F)(F)F)cc3n2)C[C@H](C)O1 [Compound 24, N-[2-(2-chlorophenyl)ethyl]-2-{[(2R,6S)-2,6-dimethylmorpholin-4-yl]methyl}-7-[3-(trifluoromethyl)pyridin-2-yl]quinazolin-4-amine]
C[C@H](CNc1ncnc2cc(-c3ncccc3C(F)(F)F)ccc12)c1ccccc1 [Compound 25, N-[(2S)-2-phenylpropyl]-7-[3 (trifluoromethyl)pyridin-2-yl]quinazolin-4-amine]
Fc1cccc(F)c1CCNc1ncnc2cc(-c3ncccc3C(F)(F)F)ccc12 [Compound 26, N-[2-(2,6-difluorophenyl)ethYl]-7-[3-(trifluoromethyl)pyridin-2-yl]quinazolin-4-amine]
Fc1ccc(CCNc2ncnc3cc(-c4ncccc4C(F)(F)F)ccc23)cc1F [Compound 27, N-[2-(3,4-difluorophenyl)ethyl]-7-[3-(trifluoromethyl)pyridin-2-yl]quinazolin-4-amine]
Fc1cc(F)cc(CCNc2ncnc3cc(-c4ncccc4C(F)(F)F)ccc23)c1 [Compound 28, N-[2-(3,5-difluorophenyl)ethyl]-7-[3-(trifluoromethyl)pyridin-2-yl]quinazolin-4-amine]
C[C@@H]1CN(Cc2nc(NCCc3ccccc3Cl)c3ncc(-c4ncccc4Cl)cc3n2)C[C@H](C)O1 [Compound 29, N-[2-(2-chlorophenyl)ethyl]-7-(3-chloropyridin-2-yl)-2-{[(2R,6S)-2,6-dimethylmorpholin-4-yl]methyl}pyrido[3,2-d]pyrimidin-4-amine]
Cc1nc(NCCc2ccccc2Cl)c2ncc(-c3ncccc3Cl)cc2n1 [Compound 30, N-[2-(2-chlorophenyl)ethyl]-7-(3-chloropyridin-2-yl)-2-methylpyrido[3,2-d]pyrimidin-4-amine]
FC(F)(F)c1cccnc1-c1ccc2c(N[C@@H]3C[C@H]3c3ccccc3)ncnc2c1 [Compound 31, N-[(1R,2S)-2-phenylcyclopropyl]-7-[3-(trifluoromethyl)pyridin-2-yl]quinazolin-4-amine]

Same assay, conditions: Table II; 50% decrease in fluorescence response of cells expressing human capsaicin receptor exposed to capsaicin

IC50, ≤ 1 µM:
C[C@@H]1CN(Cc2nc(NCCc3ccccc3Cl)c3ccc(-c4ncccc4Cl)cc3n2)C[C@@H](C)O1 (stereo in doubt) [Compound 166, [2-(2-Chloro-phenyl)-ethyl]-[7-(3-chloro-pyridin-2-yl)-2-(2,6-dimethyl-morpholin-4-ylmethyl)-quinazolin-4-yl]-amine]
